Measured values published in ChEMBL document CHEMBL1134073 (Bioorg Med Chem Lett, 2001).

Key:
[1] = test system: MT4; assay: Antiviral activity against HIV in presence of 50% human serum in MT-4 cell was determined; assay type: functional, cell-based
[2] = molecular target: Human immunodeficiency virus type 1 protease (Human immunodeficiency virus 1, UniProt Q72874); assay: Inhibitory activity against HIV protease

Row | Ki [2] [nM] | SMILES | EC50 [1] [nM]
1 | 0.0007 | Cc1cccc(C)c1OCC(=O)N[C@@H](Cc1ccccc1)[C@@H](O)C[C@H](Cc1ccccc1)NC(=O)[C@H](C(C)C)N1CCC(=O)NC1=O | 1410
2 | 0.0012 | Cc1cccc(C)c1OCC(=O)N[C@@H](Cc1ccccc1)[C@@H](O)C[C@H](Cc1ccccc1)NC(=O)[C@H](C(C)C)N1CCC(O)NC1=O (stereo not given in full) | 2310
3 |  | Cc1cccc(C)c1OCC(=O)N[C@@H](Cc1ccccc1)[C@@H](O)C[C@H](Cc1ccccc1)NC(=O)[C@H](C(C)C)N1CCCNC1=O [LOPINAVIR] | 104
